The source of these data is patent publication US11702422B2, “Imidazopyridazines as modulators of IL-17” (Janssen Pharmaceutica NV, priority 2020, dated 2023).

Where only a bound is given, the exact number is not on record here.

Assay [1] deals with IL-17A(FLAG-Tagged): IL-17RA(His-Tagged) (Homo sapiens, UniProt Q16552, K93Q). Put plainly: IL-17A(FLAG-Tagged): IL-17RA(His-Tagged) Binding Disruption Eu-HTRF Assay. The note with it: IL-17A/IL-17RA binding disruption, simple average if tested more than once. In outline: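 IC50 comes from a one-site competition fit of the HTRF 665/620 nm ratio. Compound dilutions (2-fold, 22 points) were held 1 h rt with FLAG-tagged IL-17A dimer, then His-tagged IL-17RA plus Eu-cryptate anti-FLAG and D2 anti-His antibodies were added for 2 h rt.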
(TR-FRET usually uses a lanthanide donor and a delayed reading to cut background.)

The subject of assay [2] is IL-17A-induced G-CSF production in human normal keratinocyte (NHK). Nature of the assay: NHK Assay: IL-17A-induced G-CSF production in human normal keratinocytes. The following applies: 24 h, adult normal human keratinocytes, IL-17A 5 ng/mL, simple average if tested more than once. The format is cell-based. In outline:
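Inhibition of IL-17A-driven G-CSF release is measured in adult keratinocytes stimulated for 24 h at 37° C with 5 ng/mL human IL-17A that had been pre-incubated with compound for 1 h. IC50 comes from HTRF G-CSF levels; cell viability is checked in parallel by luminescent ATP assay.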

A word on the IC50: it is the point on the concentration scale where inhibition reaches its midpoint. A low value points to higher potency.

Chain of UniProt Q16552 (Q16552 with tags, fused parts or gaps K93Q): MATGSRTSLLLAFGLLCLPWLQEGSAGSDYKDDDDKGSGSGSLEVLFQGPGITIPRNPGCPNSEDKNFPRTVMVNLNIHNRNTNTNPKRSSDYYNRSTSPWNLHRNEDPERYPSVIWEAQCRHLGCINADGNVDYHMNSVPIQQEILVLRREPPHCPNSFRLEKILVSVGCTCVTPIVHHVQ

Regarding `O=C(CCC(F)(F)F)NC(c1cnn2cc([C@@H](NC(=O)c3nnsc3C3CC3)C3CCC(F)(F)CC3)nc2c1)C1CC1` (single isomer, unassigned) [Example 466, 5-Cyclopropyl-N—((S)-(7-((R*)-cyclopropyl(4,4,4-trifluorobutanamido)methyl)imidazo[1,2-b]pyridazin-2-yl)(4,4-difluorocyclohexyl)methyl)-1,2,3-thiadiazole-4-carboxamide], the IC50 was determined as 34 nM in assay [1] and 210 nM in assay [2] (Homo sapiens, Keratinocyte).

For `Cc1nsnc1C(=O)N[C@H](c1cn2ncc(C(NC(=O)CCC(F)(F)F)C3CC3)cc2n1)C1CCC(F)(F)CC1` (single isomer, unassigned) [Example 467, N—((S)-(7-((R*)-Cyclopropyl(4,4,4-trifluorobutanamido)methyl)imidazo[1,2-b]pyridazin-2-yl)(4,4-difluorocyclohexyl)methyl)-4-methyl-1,2,5-thiadiazole-3-carboxamide], the IC50 in assay [1] was 58 nM; in assay [2] (Homo sapiens, Keratinocyte) it was 360 nM.

`CC(C)n1nccc1C(=O)N[C@H](c1cn2ncc(C(NC(=O)CCC(F)(F)F)C3CCC3)cc2n1)C1CCC(F)(F)CC1` (single isomer, unassigned) [Example 490, N—((S)-(7-((R*)-Cyclobutyl(4,4,4-trifluorobutanamido)methyl)imidazo[1,2-b]pyridazin-2-yl)(4,4-difluorocyclohexyl)methyl)-1-isopropyl-1H-pyrazole-5-carboxamide]: the IC50 in assay [1] is 150 nM; in assay [2] (Homo sapiens, Keratinocyte), 67 nM.

In the case of `Cc1nonc1C(=O)N[C@H](c1cn2ncc(C(NC(=O)CCC(F)(F)F)C3CCC3)cc2n1)C1CCC(F)(F)CC1` (single isomer, unassigned) [Example 491, N—((S)-(7-((R*)-Cyclobutyl(4,4,4-trifluorobutanamido)methyl)imidazo[1,2-b]pyridazin-2-yl)(4,4-difluorocyclohexyl)methyl)-4-methyl-1,2,5-oxadiazole-3-carboxamide], the IC50 in assay [1] is 39 nM; in assay [2] (Homo sapiens, Keratinocyte), 85 nM.

`[2H]C([2H])([2H])n1nccc1C(=O)N[C@H](c1cn2ncc(C(NC(=O)CCC(F)(F)F)C3CCC3)cc2n1)C1CCC(F)(F)CC1` (single isomer, unassigned) [Example 492, N—((S)-(7-((R*)-Cyclobutyl(4,4,4-trifluorobutanamido)methyl)imidazo[1,2-b]pyridazin-2-yl)(4,4-difluorocyclohexyl)methyl)-1-(methyl-d3)-1H-pyrazole-5-carboxamide]: the IC50 amounted to 65 nM in assay [1] and 95 nM in assay [2] (Homo sapiens, Keratinocyte).

For the molecule `Cc1nonc1C(=O)N[C@H](c1cn2ncc(C(NC(=O)CC3CC(F)(F)C3)C3CCC3)cc2n1)C1CCC(F)(F)CC1` (single isomer, unassigned) [Example 493, N—((S)-(7-((R*)-Cyclobutyl(2-(3,3-difluorocyclobutyl)acetamido)methyl)imidazo[1,2-b]pyridazin-2-yl)(4,4-difluorocyclohexyl)methyl)-4-methyl-1,2,5-oxadiazole-3-carboxamide], the figures for the IC50 in assay [1] and in assay [2] were 79 nM and 120 nM, respectively.

On to `Cc1nonc1C(=O)N[C@H](c1cn2ncc(C(NC(=O)CC3CC(F)(F)C3)C3CCC3)cc2n1)C1CCC(F)(F)CC1` (single isomer, unassigned) [Example 494, N—((S)-(7-((S*)-Cyclobutyl(2-(3,3-difluorocyclobutyl)acetamido)methyl)imidazo[1,2-b]pyridazin-2-yl)(4,4-difluorocyclohexyl)methyl)-4-methyl-1,2,5-oxadiazole-3-carboxamide], for which the IC50 was 1000 nM in assay [1] and greater than 20000 nM in assay [2].

Turning to `[2H]C([2H])([2H])C([2H])([2H])n1nccc1C(=O)N[C@H](c1cn2ncc(C(NC(=O)CC3CC(F)(F)C3)C3CCC3)cc2n1)C1CCC(F)(F)CC1` (single isomer, unassigned) [Example 495, N—((S)-(7-((R*)-Cyclobutyl(2-(3,3-difluorocyclobutyl)acetamido)methyl)imidazo[1,2-b]pyridazin-2-yl)(4,4-difluorocyclohexyl)methyl)-1-(ethyl-d5)-1H-pyrazole-5-carboxamide], the values for the IC50 in assay [1] and in assay [2] were 40 nM and 300 nM, respectively.

`[2H]C([2H])([2H])C([2H])([2H])n1nccc1C(=O)N[C@H](c1cn2ncc(C(NC(=O)CC3CC(F)(F)C3)C3CCC3)cc2n1)C1CCC(F)(F)CC1` (single isomer, unassigned) [Example 496, N—((S)-(7-((S*)-Cyclobutyl(2-(3,3-difluorocyclobutyl)acetamido)methyl)imidazo[1,2-b]pyridazin-2-yl)(4,4-difluorocyclohexyl)methyl)-1-(ethyl-d5)-1H-pyrazole-5-carboxamide]: the IC50 in assay [1] amounted to 690 nM; in assay [2], 10000 nM.

As to `[2H]C([2H])([2H])n1nccc1C(=O)N[C@H](c1cn2ncc(C(NC(=O)CC3CC(F)(F)C3)C3CCC3)cc2n1)C1CCC(F)(F)CC1` (single isomer, unassigned) [Example 497, N—((S)-(7-((R*)-Cyclobutyl(2-(3,3-difluorocyclobutyl)acetamido)methyl)imidazo[1,2-b]pyridazin-2-yl)(4,4-difluorocyclohexyl)methyl)-1-(methyl-d3)-1H-pyrazole-5-carboxamide], the IC50 in assay [1] amounted to 91 nM; in assay [2] (Homo sapiens, Keratinocyte) it was 150 nM.

Turning to `CC(C)(O)c1nonc1C(=O)N[C@H](c1cn2ncc(C(NC(=O)CC3CC(F)(F)C3)C3CCC3)cc2n1)C1CCC(F)(F)CC1` (single isomer, unassigned) [Example 499, N—((S)-(7-((R*)-Cyclobutyl(2-(3,3-difluorocyclobutyl)acetamido)methyl)imidazo[1,2-b]pyridazin-2-yl)(4,4-difluorocyclohexyl)methyl)-4-(2-hydroxypropan-2-yl)-1,2,5-oxadiazole-3-carboxamide], the IC50 is 180 nM in assay [1] and 160 nM in assay [2] (Homo sapiens, Keratinocyte).

For the molecule `Cc1nonc1C(=O)N[C@H](c1cn2ncc(C(NC(=O)CCC(F)(F)F)C(C)C)cc2n1)C1CCC(F)(F)CC1` (single isomer, unassigned) [Example 504, N—((S)-(4,4-Difluorocyclohexyl)(7-((S*)-2-methyl-1-(4,4,4-trifluorobutanamido)propyl)imidazo[1,2-b]pyridazin-2-yl)methyl)-4-methyl-1,2,5-oxadiazole-3-carboxamide], the results for the IC50 in assay [1] and in assay [2] were 46 nM and 93 nM, respectively.

Consider `Cc1nonc1C(=O)N[C@H](c1cn2ncc(C(C)NC(=O)CCC(F)(F)F)cc2n1)C1CCC(F)(F)CC1` (single isomer, unassigned) [Example 505, N—((S)-(4,4-Difluorocyclohexyl)(7-((R*)-1-(4,4,4-trifluorobutanamido)ethyl)imidazo[1,2-b]pyridazin-2-yl)methyl)-4-methyl-1,2,5-oxadiazole-3-carboxamide], for which the IC50 in assay [1] is 5400 nM; in assay [2], greater than 20000 nM.

For `[2H]C([2H])([2H])C([2H])([2H])n1nccc1C(=O)N[C@H](c1cn2ncc(C(CC)NC(=O)CC3CC(F)(F)C3)cc2n1)C1CCC(F)(F)CC1` (single isomer, unassigned) [Example 506, N—((S)-(7-((R*)-1-(2-(3,3-Difluorocyclobutyl)acetamido)propyl)imidazo[1,2-b]pyridazin-2-yl)(4,4-difluorocyclohexyl)methyl)-1-(ethyl-d5)-1H-pyrazole-5-carboxamide], the IC50 is 200 nM in assay [1] and 130 nM in assay [2] (Homo sapiens, Keratinocyte).

For the molecule `CCC(NC(=O)CC1CC(F)(F)C1)c1cnn2cc([C@@H](NC(=O)c3nonc3C3CC3)C3CCC(F)(F)CC3)nc2c1` (single isomer, unassigned) [Example 507, 4-Cyclopropyl-N—((S)-(7-((R*)-1-(2-(3,3-difluorocyclobutyl)acetamido)propyl)imidazo[1,2-b]pyridazin-2-yl)(4,4-difluorocyclohexyl)methyl)-1,2,5-oxadiazole-3-carboxamide], the IC50 in assay [1] was 56 nM; in assay [2] (Homo sapiens, Keratinocyte), 42 nM.

On to `CCC(NC(=O)CC1CC(F)(F)C1)c1cnn2cc([C@@H](NC(=O)c3nonc3C)C3CCC(F)(F)CC3)nc2c1` (single isomer, unassigned) [Example 509, N—((S)-(7-((S*)-1-(2-(3,3-Difluorocyclobutyl)acetamido)propyl)imidazo[1,2-b]pyridazin-2-yl)(4,4-difluorocyclohexyl)methyl)-4-methyl-1,2,5-oxadiazole-3-carboxamide], for which the IC50 in assay [1] is 1900 nM; in assay [2] (Homo sapiens, Keratinocyte), greater than 20000 nM.

Turning to `Cc1nonc1C(=O)N[C@H](c1cn2ncc(C(C)NC(=O)CCC(F)(F)F)cc2n1)C1CCC(F)(F)CC1` (single isomer, unassigned) [Example 510, N—((S)-(4,4-Difluorocyclohexyl)(7-((S*)-1-(4,4,4-trifluorobutanamido)ethyl)imidazo[1,2-b]pyridazin-2-yl)methyl)-4-methyl-1,2,5-oxadiazole-3-carboxamide], the IC50 in assay [1] is 83 nM; in assay [2], 440 nM.

For the molecule `CC(C)c1nonc1C(=O)N[C@H](c1cn2ncc(C(NC(=O)CCC(F)(F)F)C(C)C)cc2n1)C1CCC(F)(F)CC1` (single isomer, unassigned) [Example 511, N—((S)-(4,4-Difluorocyclohexyl)(7-((S*)-2-methyl-1-(4,4,4-trifluorobutanamido)propyl)imidazo[1,2-b]pyridazin-2-yl)methyl)-4-isopropyl-1,2,5-oxadiazole-3-carboxamide], the concentration for half-maximal inhibition (IC50) in assay [1] was 46 nM; in assay [2] (Homo sapiens, Keratinocyte) it was 21 nM.
